# Source: PMC9482650, “Quantitative fragmentomics allow affinity mapping of interactomes” (Nature Communications, 2022)
# Primed or numbered codes have the meaning given here. Ends that are not written are not given here. * marks the point of attachment. Biotin = O=C1N[C@H]2[C@H](CS[C@H]2CCCCC(=O)*)N1; ttds″ = trioxatridecan-succinamic acid linker
# Legend:
# MAGI1_2 PDZ = MAGI1_2 PDZ (Homo sapiens, UniProt Q96QZ7); assay: Competitive fluorescence polarization (FP) assay; assay type: binding; settings: read-out: pKd FP (converted)
# Method: In direct fluorescence polarization assay, the fluorophore label can interfere with affinity determination and can cause large experimental bias. For this reason, affinities were determined with competitive FP measurements where the bound fluorescent peptide is chased out by increasing concentration of unlabeled competitor. In the fitting procedure, affinities of both peptides are considered. Each PDZ-domain was first tested with labeled peptides in direct experiments and then optimal labeled peptides were used in competitive experiments.
# Double affinity-purified His6-MBP-PDZ were used for affinity measurements by FP. Fluorescence polarization was measured with a PHERAstar microplate reader by using 485 ± 20 nm and 528 ± 20 nm band-pass filters for excitation and emission, respectively. […] In total, the polarization of the probe was measured at eight different protein concentrations (whereas one contained no protein and corresponded to the free peptide). […] The dissociation constants of the direct and competitive FP experiments were obtained by fitting the measured direct data with a quadratic binding equation first and by fitting the measured competitive data with a competitive equation, using several obtained parameters from the first fit[71]. In part, competitive fluorescence polarization data were taken from refs. [22],[21]. […]
# HaCat cell extract preys = assay: PDZ-AP-MS, biotinylated MBP-PDZ baits; assay type: binding, human
# Method: (§1) For PDZ-AP-MS experiments, PDZ domains were cloned as His6-AviTag-MBP-PDZ constructs. For co-expression with BirA, E. coli BL21(DE3) cells were co-transformed with His6-AviTag-MBP, or His6-AviTag-MBP-PDZ-coding and PET21a-BirA (Addgene #20857) plasmids. Simultaneously to IPTG induction, 50 µM biotin was added to the media. After cell harvesting, the lysis buffer was also supplemented with 50 µM biotin. Otherwise, expression and double affinity purification was identical as previously described in details.
# (§2) For PBM-AP-MS experiments, 30 μl streptavidin resin was mixed with biotin or peptide at 50–60 μM concentration in 6–6.5 resin volume for 60 min to achieve resin saturation. For PDZ-AP-MS experiments, 30 μl streptavidin resin was mixed with biotinylated MBP or MBP-PDZ at 40-50 μM concentration in >1000× resin volume for 60 min to achieve resin saturation. After saturation, resins were washed a single time (ten resin volume, holdup buffer), and were depleted with biotin (1 mM biotin, 5–10 resin volume, 10 min). Finally, resins were washed two times. 0.5 ml 2 mg/ml cell lysate was added to the dry resin (1 mg total input) and were incubated at 4 °C for 2 h. Then, the beads were washed three times with 10 resin volume buffer containing: 50 mM TRIS pH 8.5, 150 mM NaCl, 1% TritonX-100, 10× complete EDTA-free protease inhibitor cocktail, 2 mM EDTA, 1 mM TCEP. Then, the beads were washed two times with ten resin volume buffer containing: 50 mM TRIS pH 8.5, 150 mM NaCl, 1 mM TCEP. Finally, captured protein was eluted from the resin in two steps and the eluted fractions were pooled. For each elution the beads were incubated for 30 min with three resin volume buffer containing: 20 mM TRIS pH8.5, 100 mM NaCl, 500 μM TCEP, 8 M Urea. Between each step, the beads were separated by mild centrifugation and the supernatant was removed by gentle pipetting.
# (§3) The samples were precipitated with TCA 20% overnight at 4 °C and centrifuged at 14,000 rpm for 10 min at 4 °C. The protein pellets were washed twice with 1 mL cold acetone and air dried. The protein extracts were solubilized in urea 8 M, reduced with 5 mM TCEP for 30 min, and alkylated with 10 mM iodoacetamide for 30 min in the dark. Double digestion was performed at 37 °C with 500 ng endoproteinase Lys-C for 4 h, followed by fourfold dilution and an overnight digestion with 500 ng trypsin. Peptide mixtures were then desalted on C18 spin-column and dried on Speed-Vacuum.
# (§4) Samples were analyzed using an Ultimate 3000 nano-RSLC (Thermo Scientific, San Jose California) coupled in line with a LTQ-Orbitrap ELITE mass spectrometer via a nano-electrospray ionization source (Thermo Scientific, San Jose California). […]
# [1] = test system: Jurkat cell extract preys; assay: PDZ-AP-MS, biotinylated MBP-PDZ baits; assay type: binding, human
# Method: as §1, §2, §3, §4
# DLG1 = assay: PBM-AP-MS from Jurkat extract; assay type: binding, Homo sapiens; settings: Jurkat extract; prey DLG1 (Q12959); PBM bait vs biotin control
# Method: as §2
# (§5) Proteins were identified by database searching using SequestHT (Thermo Fisher Scientific) with Proteome Discoverer 2.4 software (PD2.4, Thermo Fisher Scientific) on human FASTA database downloaded from SwissProt (reviewed, release 2020_11_27, 20304 entries, https://www.uniprot.org/). Precursor and fragment mass tolerances were set at 7 ppm and 0.6 Da respectively, and up to two missed cleavages were allowed. Oxidation (M, +15.995 Da) was set as variable modification, and Carbamidomethylation (C, +57.021 Da) as fixed modification. Peptides and proteins were filtered with a false discovery rate at 1%. Label-free quantification was based on the extracted ion chromatography intensity of the peptides. All samples were measured in technical triplicates. The measured extracted ion chromatogram (XIC) intensities were normalized based on median intensities of the entire dataset to correct minor loading differences. For statistical tests and enrichment calculations, not detectable intensity values were treated with an imputation method, where the missing values were replaced by random values similar to the 10% of the lowest intensity values present in the entire dataset. Unpaired two-tailed T-test, assuming equal variance, were performed on obtained log2 XIC intensities. The detection threshold for enriched proteins in AP-MS experiments were analyzed above twofold enrichment with <0.01 P value. Then, proteins with PDZ-domains or PBMs were extracted from the list of enriched proteins. In case only a specific isoform of the detected protein contains a PBM, the identified peptide fragments were manually checked to check which isoform(s) were most likely detected. All raw LC-MS/MS data (from 165 runs) have been deposited to the ProteomeXchange via the PRIDE database with identifier PXD027743.
# LIN7C [2] = assay: PBM-AP-MS from Jurkat extract; assay type: binding, Homo sapiens; settings: Jurkat extract; prey LIN7C (Q9NUP9); PBM bait vs biotin control
# Method: as §2, §5
# MAGI1 = assay: PBM-AP-MS from Jurkat extract; assay type: binding, Homo sapiens; settings: Jurkat extract; prey MAGI1 (Q96QZ7); PBM bait vs biotin control
# Method: as §2, §5
# SCRIB = assay: PBM-AP-MS from Jurkat extract; assay type: binding, Homo sapiens; settings: Jurkat extract; prey SCRIB (Q14160); PBM bait vs biotin control
# Method: as §2, §5
# MPP5 [3] = assay: PBM-AP-MS from Jurkat extract; assay type: binding, Homo sapiens; settings: prey MPP5 (Q8N3R9), PBM bait vs biotin control
# Text: Supplement 41467_2022_33018_MOESM5_ESM.xlsx, sheet "Jurkat HPV59-E6" | column: -LOG(P-Value); Difference log2; Ratio HPV59/biot
# LIN7C [4] = assay: PBM-AP-MS from HaCat extract; assay type: binding, Homo sapiens; settings: prey LIN7C (Q9NUP9), PBM bait vs biotin control (Biot03)
# CASK = assay: PBM-AP-MS from HaCat extract; assay type: binding, Homo sapiens; settings: prey CASK (O14936), PBM bait vs biotin control (Biot03)
# MPP7 = assay: PBM-AP-MS from HaCat extract; assay type: binding, Homo sapiens; settings: prey MPP7 (Q5T2T1), PBM bait vs biotin control (Biot03)
# MAGI3 = assay: PBM-AP-MS from HaCat extract; assay type: binding, Homo sapiens; settings: prey MAGI3 (Q5TCQ9), PBM bait vs biotin control (Biot03)
# Text: (§6) Supplement 41467_2022_33018_MOESM5_ESM.xlsx, sheet "HaCat HPV59-E6" | column: -LOG(P-value); Difference log2; Ratio HPV59E6/Biot03
# MPP5 [5] = assay: PBM-AP-MS from HaCat extract; assay type: binding, Homo sapiens; settings: prey MPP5 (Q8N3R9), PBM bait vs biotin control (Biot03)
# Text: as §6
# SYNJ2BP PDZ = SYNJ2BP PDZ (Homo sapiens, UniProt P57105); assay: Holdup assay; assay type: binding
# SYNJ2BP PDZ, sequence (P57105 13-100 limits assumed): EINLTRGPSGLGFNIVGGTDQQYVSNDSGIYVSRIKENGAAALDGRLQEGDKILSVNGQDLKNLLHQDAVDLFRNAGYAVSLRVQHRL
# MAGI1_2 PDZ, sequence (Q96QZ7 472-554 limits assumed): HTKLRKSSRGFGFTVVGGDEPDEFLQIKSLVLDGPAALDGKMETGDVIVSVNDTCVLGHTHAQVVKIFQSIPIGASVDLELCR
compound,measurement,setting,value
CC(C)C[C@H](NC(=O)[C@H](CCC(N)=O)NC(=O)[C@@H](NC(=O)[C@H](CCC(=O)O)NC(=O)[C@H](CCCNC(=N)N)NC(=O)[C@H](CCCNC(=N)N)NC(=O)[C@@H](NC(=O)[C@H](CCCNC(=N)N)NC(=O)[C@H](CO)NC(=O)[C@H](CO)NC(=O)CCC(=O)NCCCOCCOCCOCCCNC(=O)CCCC[C@@H]1SC[C@@H]2NC(=O)N[C@@H]21)[C@@H](C)O)[C@@H](C)OP(=O)(O)O)C(=O)O [HPV16-E6_-2P],Kd,MAGI1_2 PDZ,2.52 mM
EXOC1,Difference log2,"HaCat cell extract preys; bait DLG1_2 PDZ vs MBP, enrichment of prey",4.458
same,Ratio DLG1_2/MBP,"HaCat cell extract preys; bait DLG1_2 PDZ, fold change of prey",21.9853
ANXA2,Difference log2,"[1]; bait SCRIB_2 PDZ vs MBP, enrichment of prey",5.895
same,Ratio SCRIB_2/MBP,"[1]; bait SCRIB_2 PDZ, fold change of prey",59.5253
HPV59-E6 ({Biotin-ttds″}-QRQARSETLV),Difference log2,DLG1,9.078
same,Ratio bait/biot,DLG1,540.448
same,Difference log2,LIN7C [2],5.541
same,Ratio bait/biot,LIN7C [2],46.5688
same,Difference log2,MAGI1,6.509
same,Ratio bait/biot,MAGI1,91.0533
same,Difference log2,SCRIB,4.363
same,Ratio bait/biot,SCRIB,20.5739
same,Difference log2,MPP5 [3],4.755
same,Ratio bait/biot,MPP5 [3],26.9941
same,Difference log2,LIN7C [4],8.47
same,Ratio bait/Biot03,LIN7C [4],354.524
same,Difference log2,CASK,7.278
same,Ratio bait/Biot03,CASK,155.163
same,Difference log2,MPP7,5.592
same,Ratio bait/Biot03,MPP7,48.2208
same,Difference log2,MAGI3,2.908
same,Ratio bait/Biot03,MAGI3,7.505
same,Difference log2,MPP5 [5],3.6952
same,Ratio bait/Biot03,MPP5 [5],12.9528
CC(C)C[C@H](NC(=O)[C@H](CCC(N)=O)NC(=O)[C@@H](NC(=O)[C@H](CCC(=O)O)NC(=O)[C@H](CCCNC(=N)N)NC(=O)[C@H](CCCNC(=N)N)NC(=O)[C@@H](NC(=O)[C@H](CCCNC(=N)N)NC(=O)[C@H](CO)NC(=O)[C@@H](N)CO)[C@@H](C)O)[C@@H](C)O)C(=O)O [HPV16E6],Kd,SYNJ2BP PDZ,0.00656 mM
